Numbered stars: 1 amine (or outer) side, 2 acyl side, 3 side chain; on linkers, the order of the positions; unused ones are H or OH. Side chains are listed from the residue outwards. Peptide text beside a SMILES is read from it. * marks the point of attachment. X1 = O=C(CCCCCCCCCCCCCCCc1nnn[nH]1)NS(=O)(=O)CCCC(=O)*; γGlu = O=C(O)[C@H](CCC(=O)[*:2])N[*:1]; C14 diacid = O=C(O)CCCCCCCCCCCCC(=O)*; AEEA = NCCOCCOCC(=O)O

Consider 5 molecules from patent US9486506B2 (Novo Nordisk A/S, priority 2011, dated 2016).

Series [1] has as its target T1, glucagon receptor (Homo sapiens, UniProt P47871).
T1 construct: expressed in transfected cells
The series can be described thus: Assay (I) Glucagon activity (cAMP biosensor, FLIPR). The series is classed as cell-based.

Series [2] in a line: Assay (XI) Pharmacokinetic study in minipigs. To be noted: both sexes, Göttingen, minipig, plasma, iv, i.v. administration, terminal half-life, read-out: iv PK minipig [T½] (converted). Type of series: in vivo, Göttingen minipigs. The protocol:
Buffer: • 50 mM Dinatriumphosphatdihydrat • 184 mM Propylenglycol • 58 mM Phenol • pH adjusted to 8.15 with H3PO4. In cases where pH was adjusted to 8.15 after re-suspension of analogues, 0.2 M NaOH was used. Assay (XI) Pharmacokinetic Study in Minipigs
This is done in a pharmacokinetic (PK) study, whereamong other parameters the terminal half-life and the clearance of the derivative in question is determined. Increasing the terminal half-life and decreasing the clearance means that the compound of study is eliminated slower from the body.
Male or female Göttingen minipigs were obtained from Ellegaard Göttingen Minipigs (Dalmose, Denmark) approximately 7-14 months of age and weighing from approximately 16-35 kg were used in the studies. The minipigs were housed either individually (pigs with permanent catheters) or in a group and fed restrictedly once or twice daily with SDS minipig diet (Special Diets Services, Essex, UK). In some studies two permanent central venous catheters were implanted in vena cava caudalis or cranialis in each animal after at least 2 weeks of acclimatisation. […] On each dosing occasion these pigs were instrumented with a venflon in one ear vein through which the derivatives were dosed. Blood sampling was done by venipuncture in v. jugularis or v. cava cranialis
The animals were either unfasted or fasted for approximately 18 h before dosing and from 0 to 4 h after dosing, but had ad libitum access to water during the whole period.
Intravenous injections (the volume corresponding to usually 2-3 nmol/kg, for example 0.1 ml/kg) of the compounds were given through one catheter or through the venflon, and blood was sampled at predefined time points for up till 13 days post dosing (preferably through the other catheter or by venipuncture). Blood samples (for example 0.8 ml) were collected in tubes with EDTA buffer (8 mM) (sometimes aprotinin 500 KIU/ml blood was added) and then centrifuged at 4° C. and 1942 G for 10 minutes. […] Based on these measurements, time-plasma concentration profiles for the compound of study are plotted and a so-called non-compartmental pharmacokinetic analysis of the data is performed in WinNonlin v. 5.0 or Phoenix v. 6.2 (Pharsight Inc., Mountain View, Calif., USA) or other relevant software for PK analysis. For most compounds, the terminal part of the plasma-concentration profiles will be linear when drawn in a semi-logarithmic plot, reflecting that after the initial distribution, drug is removed from the body at a constant fractional rate. The rate (lambda Z or is equal to minus the slope of the terminal part of the plot. From this rate, also the terminal half-life may be calculated, as t½=ln(2)/λz (see, e.g., Johan Gabrielsson and Daniel Weiner: Pharmacokinetics and Pharmacodynamic Data Analysis. Concepts & Applications, 3rd Ed., Swedish Pharmaceutical Press, Stockholm (2000)).
Clearance is defined as the dose (D) divided by area under the curve (AUC) on the plasmaconcentration versus time profile (Rowland, M and Tozer T N: Clinical Pharmacokinetics: Concepts and Applications, 3rd edition, 1995 Williams Wilkins)

Series [3] is described as follows: Assay (X) Chemical stability assessment by RP-UPLC. The series is classed as physicochemical. To be noted: pH 8.15, 14 days at 37° C. vs 5° C., 333 μM.

T1 sequence (P47871 26-477): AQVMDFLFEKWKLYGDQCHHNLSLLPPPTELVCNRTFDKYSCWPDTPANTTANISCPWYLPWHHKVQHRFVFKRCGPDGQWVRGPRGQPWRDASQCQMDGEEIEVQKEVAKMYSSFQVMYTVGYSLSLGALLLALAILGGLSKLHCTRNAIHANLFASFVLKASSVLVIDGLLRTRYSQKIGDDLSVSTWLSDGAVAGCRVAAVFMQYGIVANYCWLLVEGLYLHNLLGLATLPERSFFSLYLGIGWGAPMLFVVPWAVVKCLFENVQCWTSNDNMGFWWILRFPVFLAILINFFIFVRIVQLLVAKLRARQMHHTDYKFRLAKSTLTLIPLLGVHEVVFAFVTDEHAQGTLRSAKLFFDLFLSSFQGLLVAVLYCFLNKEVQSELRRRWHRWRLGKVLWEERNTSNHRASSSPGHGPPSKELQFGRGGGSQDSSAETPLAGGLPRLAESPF

The term EC50 denotes the concentration that produces a half-maximal response. A lower EC50 goes with a more potent agent. As for `CC(C)C[C@H](NC(=O)[C@H](CC(=O)O)NC(=O)[C@H](CC(C)C)NC(=O)[C@H](Cc1ccc(O)cc1)NC(=O)[C@H](CCCNC(=N)N)NC(=O)[C@H](CO)NC(=O)[C@H](Cc1ccc(O)cc1)NC(=O)[C@H](CC(=O)O)NC(=O)[C@H](CO)NC(=O)[C@@H](NC(=O)[C@H](Cc1ccccc1)NC(=O)[C@@H](NC(=O)CNC(=O)[C@H](CCC(N)=O)NC(=O)[C@H](CO)NC(=O)[C@@H](N)Cc1c[nH]cn1)[C@@H](C)O)[C@@H](C)O)C(=O)N[C@@H](CCCNC(=N)N)C(=O)N[C@@H](CCCNC(=N)N)C(=O)N[C@@H](C)C(=O)N[C@@H](CCC(N)=O)C(=O)N[C@@H](CC(=O)O)C(=O)N[C@@H](Cc1ccccc1)C(=O)N[C@H](C(=O)N[C@@H](CCCCNC(=O)CC[C@H](NC(=O)CC[C@H](NC(=O)COCCOCCNC(=O)COCCOCCNC(=O)CC[C@H](NC(=O)CCCCCCCCCCCCC(=O)O)C(=O)O)C(=O)O)C(=O)O)C(=O)N[C@@H](Cc1c[nH]c2ccccc12)C(=O)N[C@@H](CC(C)C)C(=O)N[C@@H](CC(C)C)C(=O)N[C@@H](CO)C(=O)N[C@H](C(=O)O)[C@@H](C)O)C(C)C` [Example 24, N^ε24-[(4S)-4-carboxy-4-[[(4S)-4-carboxy-4-[[2-[2-[2-[[2-[2-[2-[[(4S)-4-carboxy-4-(13-carboxytridecanoylamino)butanoyl]amino]ethoxy]ethoxy]acetyl]amino]ethoxy]ethoxy]acetyl]amino]butanoyl]amino]butanoyl]-[Arg^12,Leu^16,Lys^24,Leu^27,Ser^28]-Glucagon] (H-HSQGTFTSDYSRYLDLRRAQDFVK([γGlu-γGlu-AEEA-AEEA-γGlu-C14 diacid])WLLST-OH), it took 0.006 nM to reach a half-maximal effect in series [1] (EC50). In addition, in series [2], the half-life is 4.1 h.

In the case of `CC(C)C[C@H](NC(=O)[C@H](Cc1ccc(O)cc1)NC(=O)[C@H](CCCCN)NC(=O)[C@H](CO)NC(=O)[C@H](Cc1ccc(O)cc1)NC(=O)[C@H](CC(=O)O)NC(=O)[C@H](CO)NC(=O)[C@@H](NC(=O)[C@H](Cc1ccccc1)NC(=O)[C@@H](NC(=O)CNC(=O)[C@H](CCC(N)=O)NC(=O)[C@H](CO)NC(=O)[C@@H](N)Cc1c[nH]cn1)[C@@H](C)O)[C@@H](C)O)C(=O)N[C@@H](CCC(=O)O)C(=O)N[C@@H](CO)C(=O)N[C@@H](CCCNC(=N)N)C(=O)N[C@@H](CCCNC(=N)N)C(=O)N[C@@H](C)C(=O)N[C@@H](CCC(N)=O)C(=O)N[C@@H](CC(=O)O)C(=O)N[C@@H](Cc1ccccc1)C(=O)N[C@H](C(=O)N[C@@H](CCCCNC(=O)CC[C@H](NC(=O)CC[C@H](NC(=O)COCCOCCNC(=O)CC[C@H](NC(=O)CCCCCCCCCCCCCCCCC(=O)O)C(=O)O)C(=O)O)C(=O)O)C(=O)N[C@@H](Cc1c[nH]c2ccccc12)C(=O)N[C@@H](CC(C)C)C(=O)N[C@@H](CC(C)C)C(=O)N[C@@H](CO)C(=O)N[C@H](C(=O)O)[C@@H](C)O)C(C)C` [Example 1, N^ε24-[(4S)-4-carboxy-4-[[(4S)-4-carboxy-4-[[2-[2-[2-[[(4S)-4-carboxy-4-(17-carboxyheptadecanoylamino)butanoyl]amino]ethoxy]ethoxy]acetyl]amino]butanoyl]amino]butanoyl]-[Glu^15,Lys^24,Leu^27,Ser^28]-Glucagon], the EC50 in series [1] was 0.28 nM. Moreover, the “Chemical stability [Purity loss/14 days 37 C.]” value in series [3] came out at 7.6%.

In series [1], `CC(C)C[C@H](NC(=O)[C@H](Cc1c[nH]c2ccccc12)NC(=O)[C@H](CCCCNC(=O)COCCOCCNC(=O)CC[C@H](NC(=O)CC[C@H](NC(=O)COCCOCCNC(=O)CC[C@H](NC(=O)CCCCCCCCCCCCCCCCC(=O)O)C(=O)O)C(=O)O)C(=O)O)NC(=O)[C@@H](NC(=O)[C@H](Cc1ccccc1)NC(=O)[C@H](CC(=O)O)NC(=O)[C@H](CCC(N)=O)NC(=O)[C@H](C)NC(=O)[C@H](CCCNC(=N)N)NC(=O)[C@H](CCCNC(=N)N)NC(=O)[C@@H](NC(=O)[C@H](CC(=O)O)NC(=O)[C@H](CC(C)C)NC(=O)[C@H](Cc1ccc(O)cc1)NC(=O)[C@H](CCCCN)NC(=O)[C@H](CO)NC(=O)[C@H](Cc1ccc(O)cc1)NC(=O)[C@H](CC(=O)O)NC(=O)[C@H](CO)NC(=O)[C@@H](NC(=O)[C@H](Cc1ccccc1)NC(=O)[C@@H](NC(=O)CNC(=O)[C@H](CCC(N)=O)NC(=O)[C@H](CO)NC(=O)[C@@H](N)Cc1c[nH]cn1)[C@@H](C)O)[C@@H](C)O)[C@@H](C)O)C(C)C)C(=O)N[C@@H](CC(C)C)C(=O)N[C@@H](CO)C(=O)N[C@H](C(=O)O)[C@@H](C)O` [Example 40, N^ε24-[2-[2-[2-[[(4S)-4-carboxy-4-[[(4S)-4-carboxy-4-[[2-[2-[2-[[(4S)-4-carboxy-4-(17-carboxyheptadecanoylamino)butanoyl]amino]ethoxy]ethoxy]acetyl]amino]butanoyl]amino]butanoyl]amino]ethoxy]ethoxy]acetyl]-[Thr16,Lys24,Leu27,Ser28]-Glucagon] yielded an EC50 of 0.078 nM. The “Chemical stability [Purity loss/14 days 37 C.]” value in series [3] is 7.5%.

Molecule `CC(C)C[C@H](NC(=O)[C@H](CC(=O)O)NC(=O)[C@H](CC(C)C)NC(=O)[C@H](Cc1ccc(O)cc1)NC(=O)[C@H](CCCNC(=N)N)NC(=O)[C@H](CO)NC(=O)[C@H](Cc1ccc(O)cc1)NC(=O)[C@H](CC(=O)O)NC(=O)[C@H](CO)NC(=O)[C@@H](NC(=O)[C@H](Cc1ccccc1)NC(=O)[C@@H](NC(=O)CNC(=O)[C@H](CCC(N)=O)NC(=O)[C@H](CO)NC(=O)[C@@H](N)Cc1c[nH]cn1)[C@@H](C)O)[C@@H](C)O)C(=O)N[C@@H](CCCNC(=N)N)C(=O)N[C@@H](CCCNC(=N)N)C(=O)N[C@@H](C)C(=O)N[C@@H](CCC(N)=O)C(=O)N[C@@H](CC(=O)O)C(=O)N[C@@H](Cc1ccccc1)C(=O)N[C@H](C(=O)N[C@@H](CCCCNC(=O)CC[C@H](NC(=O)CC[C@H](NC(=O)COCCOCCNC(=O)COCCOCCNC(=O)CCCS(=O)(=O)NC(=O)CCCCCCCCCCCCCCCc1nnn[nH]1)C(=O)O)C(=O)O)C(=O)N[C@@H](Cc1c[nH]c2ccccc12)C(=O)N[C@@H](CC(C)C)C(=O)N[C@@H](CC(C)C)C(=O)N[C@@H](CO)C(=O)N[C@H](C(=O)O)[C@@H](C)O)C(C)C` [Example 68, N^ε24-[(4S)-4-carboxy-4-[[(4S)-4-carboxy-4-[[2-[2-[2-[[2-[2-[2-[4-[16-(1H-tetrazol-5-yl)hexadecanoylsulfannoyl]butanoylamino]ethoxy]ethoxy]acetyl]amino]ethoxy]ethoxy]acetyl]amino]butanoyl]amino]butanoyl]-[Arg12, Leu16, Lys24, Leu27,Ser28]-Glucagon] (H-HSQGTFTSDYSRYLDLRRAQDFVK([γGlu-γGlu-AEEA-AEEA-X1])WLLST-OH) gave an EC50 in series [1] of 0.357 nM. Besides, in series [3], the “Chemical stability [Purity loss/14 days 37 C.]” value turned out to be 5.6%.

In series [1], `CC[C@H](C)[C@H](NC(=O)[C@H](CC(=O)O)NC(=O)[C@H](CC(C)C)NC(=O)[C@H](Cc1ccc(O)cc1)NC(=O)[C@H](CCCCN)NC(=O)[C@H](CO)NC(=O)[C@H](Cc1ccc(O)cc1)NC(=O)[C@H](CC(=O)O)NC(=O)[C@H](CO)NC(=O)[C@@H](NC(=O)[C@H](Cc1ccccc1)NC(=O)[C@@H](NC(=O)CNC(=O)[C@H](CCC(N)=O)NC(=O)[C@H](CO)NC(=O)[C@@H](N)Cc1c[nH]cn1)[C@@H](C)O)[C@@H](C)O)C(=O)N[C@@H](CCCNC(=N)N)C(=O)N[C@@H](CCCNC(=N)N)C(=O)N[C@@H](C)C(=O)N[C@@H](CCC(N)=O)C(=O)N[C@@H](CC(=O)O)C(=O)N[C@@H](Cc1ccccc1)C(=O)N[C@H](C(=O)N[C@@H](CCCCNC(=O)CC[C@H](NC(=O)CC[C@H](NC(=O)CC[C@H](NC(=O)CC[C@H](NC(=O)CCCCCCCCCCCCCCCCC(=O)O)C(=O)O)C(=O)O)C(=O)O)C(=O)O)C(=O)N[C@@H](Cc1c[nH]c2ccccc12)C(=O)N[C@@H](CC(C)C)C(=O)N[C@@H](CC(C)C)C(=O)N[C@@H](CO)C(=O)N[C@H](C(N)=O)[C@@H](C)O)C(C)C` [Example 75, N^ε24-[(4S)-4-carboxy-4-[[(4S)-4-carboxy-4-[[(4S)-4-carboxy-4-[[(4S)-4-carboxy-4-(17-carboxyheptadecanoylamino)butanoyl]amino]butanoyl]amino]butanoyl]amino]butanoyl]-[Ile16,Lys24,Leu27,Ser28]-Glucagon amide] returned an EC50 of 0.402 nM. Also, the “Chemical stability [Purity loss/14 days 37 C.]” value in series [3] turned out to be 3.6%.
